Inconclusive results and toxic doses are left out. Rule as the data show it: active = T/C of 150% or more; inactive = T/C below 125%.
System: L1210 leukemia ip in BDF1 mice, survival T/C
Experiment: NCI In Vivo Anticancer Drug Screen. Data for tumor model L1210 Leukemia (intraperitoneal) in B6D2F1 (BDF1) mice
Details: endpoint: mean survival time, higher = longer survival
Summary of the method: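 Tumor was transplanted into mice, which were then dosed with test compound or vehicle alone. Survival was recorded for each group, and the treated figure was expressed relative to the control figure.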

[1] = dose: 100.0 mg/kg/injection, schedule: Q01DX001 (ip), vehicle: saline
[2] = dose: 200.0 mg/kg/injection, schedule: Q01DX001 (ip), vehicle: saline
[3] = dose: 400.0 mg/kg/injection, schedule: Q01DX001 (ip), vehicle: saline
[4] = dose: 100.0 mg/kg/injection, schedule: Q04DX003 (ip), vehicle: saline with Tween-80
[5] = dose: 200.0 mg/kg/injection, schedule: Q04DX003 (ip), vehicle: saline with Tween-80
[6] = dose: 400.0 mg/kg/injection, schedule: Q04DX003 (ip), vehicle: saline with Tween-80
[7] = dose: 100.0 mg/kg/injection, schedule: Q04DX002 (ip), vehicle: saline with Tween-80
[8] = dose: 200.0 mg/kg/injection, schedule: Q04DX002 (ip), vehicle: saline with Tween-80
[9] = dose: 100.0 mg/kg/injection, schedule: Q01DX001 (ip), vehicle: carboxymethylcellulose (CMC)
[10] = dose: 400.0 mg/kg/injection, schedule: Q01DX001 (ip), vehicle: carboxymethylcellulose (CMC)
[11] = dose: 100.0 mg/kg/injection, schedule: Q01DX009 (ip), vehicle: saline with Tween-80
[12] = dose: 10.0 mg/kg/injection, schedule: Q01DX001 (ip), vehicle: saline
[13] = dose: 20.0 mg/kg/injection, schedule: Q01DX001 (ip), vehicle: saline

Measured: T/C

CCOC(=O)C1=C2C(C(=O)OCC)C(O)=C(C(=O)OCC)C2C(C(=O)OCC)C1=O (stereo not given)
inactive: [1] 103 % of control | dose: 100.0 mg/kg/injection, schedule: Q01DX009 (ip), vehicle: saline 104 % of control | dose: 100.0 mg/kg/injection, schedule: Q04DX003 (ip), vehicle: saline 97 % of control | [2] 92 % of control | dose: 200.0 mg/kg/injection, schedule: Q01DX009 (ip), vehicle: saline 104 % of control | dose: 200.0 mg/kg/injection, schedule: Q04DX003 (ip), vehicle: saline 103 % of control | [3] 97 % of control | dose: 400.0 mg/kg/injection, schedule: Q01DX009 (ip), vehicle: saline 109 % of control | dose: 400.0 mg/kg/injection, schedule: Q04DX003 (ip), vehicle: saline 117 % of control

C[N+]1(C)CCC(=O)CC1
inactive: [4] 98 % of control | [5] 98 % of control | [6] 95 % of control

CN(C)c1ccc(P(=O)(c2ccc(N(C)C)cc2)c2ccc(N(C)C)cc2)cc1.CN(C)c1ccc(P(=O)(c2ccc(N(C)C)cc2)c2ccc(N(C)C)cc2)cc1.[Cl][Sn]([Cl])([Cl])[Cl]
inactive: dose: 50.0 mg/kg/injection, schedule: Q01DX009 (ip), vehicle: Klucel (hydroxypropylcellulose) (HPC) 87 % of control | dose: 100.0 mg/kg/injection, schedule: Q01DX009 (ip), vehicle: Klucel (hydroxypropylcellulose) (HPC) 91 % of control | dose: 200.0 mg/kg/injection, schedule: Q01DX009 (ip), vehicle: Klucel (hydroxypropylcellulose) (HPC) 94 % of control

O=C(CCl)Nc1ccc(CCN2C(=O)CC(c3ccccc3)C2=O)cc1 (stereo not given)
inactive: [7] 93 % of control | [8] 97 % of control | dose: 400.0 mg/kg/injection, schedule: Q04DX002 (ip), vehicle: saline with Tween-80 89 % of control

C[Si](C)(C)OCCCCCCCl
inactive: dose: 50.0 mg/kg/injection, schedule: Q01DX001 (ip), vehicle: carboxymethylcellulose (CMC) 108 % of control | [9] 101 % of control | dose: 200.0 mg/kg/injection, schedule: Q01DX001 (ip), vehicle: carboxymethylcellulose (CMC) 95 % of control | [10] 103 % of control

CCCCCCCCCCCCCC(CC1CCCCC1)CC1CCCCC1
inactive: dose: 100.0 mg/kg/injection, schedule: Q01DX001 (ip), vehicle: saline with Tween-80 103 % of control | dose: 200.0 mg/kg/injection, schedule: Q01DX001 (ip), vehicle: saline with Tween-80 102 % of control | dose: 400.0 mg/kg/injection, schedule: Q01DX001 (ip), vehicle: saline with Tween-80 100 % of control

CCCCOC(=O)/C=C/C(=O)OCCCC
inactive: [11] 97 % of control | dose: 200.0 mg/kg/injection, schedule: Q01DX009 (ip), vehicle: saline with Tween-80 101 % of control | dose: 400.0 mg/kg/injection, schedule: Q01DX009 (ip), vehicle: saline with Tween-80 111 % of control

COc1ccc(/C=C/C(=O)c2ccccc2)cc1Br
inactive: [4] 100 % of control | [5] 96 % of control | [6] 96 % of control

CC(C)(C)C1SCC(=NNc2ccc([N+](=O)[O-])cc2[N+](=O)[O-])CS1 (stereo not given)
inactive: dose: 12.5 mg/kg/injection, schedule: Q04DX002 (ip), vehicle: gum acacia 95 % of control | dose: 25.0 mg/kg/injection, schedule: Q04DX002 (ip), vehicle: gum acacia 98 % of control | dose: 50.0 mg/kg/injection, schedule: Q04DX002 (ip), vehicle: gum acacia 95 % of control

CC(C)(C)N1C=C(c2ccccc2)N=CC1(c1ccccc1)C(C)(C)C (stereo not given)
inactive: dose: 50.0 mg/kg/injection, schedule: Q04DX002 (ip), vehicle: saline with Tween-80 99 % of control | dose: 100.0 mg/kg/injection, schedule: Q04DX002 (ip), vehicle: Klucel (hydroxypropylcellulose) (HPC) 92 % of control | [7] 99 % of control | dose: 200.0 mg/kg/injection, schedule: Q04DX002 (ip), vehicle: Klucel (hydroxypropylcellulose) (HPC) 100 % of control | [8] 99 % of control | dose: 400.0 mg/kg/injection, schedule: Q04DX002 (ip), vehicle: Klucel (hydroxypropylcellulose) (HPC) 103 % of control

CC1=CC(=O)c2c(O)ccc(O)c2C1=O
inactive: dose: 2.5 mg/kg/injection, schedule: Q04DX003 (ip), vehicle: other 95 % of control | dose: 5.0 mg/kg/injection, schedule: Q01DX001 (ip), vehicle: saline 101 % of control | dose: 5.0 mg/kg/injection, schedule: Q04DX003 (ip), vehicle: other 103 % of control | [12] 97 % of control | dose: 10.0 mg/kg/injection, schedule: Q04DX003 (ip), vehicle: other 94 % of control | [13] 100 % of control | dose: 40.0 mg/kg/injection, schedule: Q01DX001 (ip), vehicle: saline 102 % of control

CC(C)=CCOc1ccc(C(=O)O)cc1
inactive: [1] 100 % of control | [2] 116 % of control | [3] 107 % of control

O=c1c2ccccc2[nH]c(=S)n1-c1cccc(Cl)c1
inactive: dose: 75.0 mg/kg/injection, schedule: Q01DX001 (ip), vehicle: saline 93 % of control | dose: 150.0 mg/kg/injection, schedule: Q01DX001 (ip), vehicle: saline 89 % of control | dose: 300.0 mg/kg/injection, schedule: Q01DX001 (ip), vehicle: saline 91 % of control

CCNC1CCCCC1
inactive: dose: 50.0 mg/kg/injection, schedule: Q01DX009 (ip), vehicle: saline with Tween-80 104 % of control | [11] 107 % of control

CN1CCN(C(=S)[S-])CC1.CN1CCN(C(=S)[S-])CC1.[Zn]
inactive: dose: 2.5 mg/kg/injection, schedule: Q01DX009 (ip), vehicle: acetone 96 % of control | dose: 5.0 mg/kg/injection, schedule: Q01DX009 (ip), vehicle: acetone 96 % of control | dose: 5.0 mg/kg/injection, schedule: Q04DX003 (ip), vehicle: acetone 100 % of control | [12] 91 % of control | dose: 10.0 mg/kg/injection, schedule: Q01DX009 (ip), vehicle: acetone 108 % of control | dose: 10.0 mg/kg/injection, schedule: Q04DX003 (ip), vehicle: acetone 92 % of control | [13] 91 % of control | dose: 20.0 mg/kg/injection, schedule: Q04DX003 (ip), vehicle: acetone 92 % of control

O=[N+]([O-])c1ccc2cnn(CN3CCCCC3)c2c1
inactive: [9] 98 % of control | [10] 98 % of control
